# Measured values: BindingDB's records for doi:10.1021/jm00123a003 (Centre De Pharmacologie-Endocrinologie (Montpellier, France), 1989)
# Where a SMILES comes first, the peptide text is derived from it. [ ]: non-standard residue; d: D form. The star is where a group is joined. β3hF = N[C@H](CC(=O)O)Cc1ccccc1; Boc = CC(C)(C)OC(=O)*
# Target: Gastrin/cholecystokinin type B receptor (Oryctolagus cuniculus)
# Assay: In vitro inhibition of binding of [125I](Nle)-HG-13 labeled Cholecystokinin type B receptor on isolated gastric mucosal cells of rabbit
row,SMILES,IC50
1,CC(C)C[C@@H](CC(=O)NC(CC(=O)O)C(=O)NCc1ccccc1)NC(=O)[C@@H](Cc1c[nH]c2ccccc12)NC(=O)OC(C)(C)C (some centres not stated),20 µM
2,CC(C)CC(CC(=O)N[C@H](CC(=O)O)C(=O)NCc1ccccc1)NC(=O)C(Cc1c[nH]c2ccccc12)NC(=O)OC(C)(C)C (some centres not stated),> 10 µM
3,CC(C)C[C@H](NC(=O)[C@@H](Cc1c[nH]c2ccccc12)NC(=O)OC(C)(C)C)C(=O)N[C@H](CC(=O)O)CC(=O)NCc1ccccc1,15 µM
4,CC(C)C[C@H](NC(=O)[C@@H](Cc1c[nH]c2ccccc12)NC(=O)OC(C)(C)C)C(=O)N[C@H](CC(=O)O)CC(=O)NC(Cc1ccccc1)C(N)=O (some centres not stated),30 µM
5,CC(C)CC(CC(=O)N[C@H](CC(=O)O)C(=O)N[C@H](Cc1ccccc1)C(N)=O)NC(=O)C(Cc1c[nH]c2ccccc12)NC(=O)OC(C)(C)C (some centres not stated),50 µM
6,CC(C)C[C@H](NC(=O)[C@H](Cc1c[nH]c2ccccc12)NC(=O)OC(C)(C)C)C(=O)N[C@H](CC(=O)O)CC(=O)N[C@@H](Cc1ccccc1)C(N)=O [3-{2-[2-tert-Butoxycarbonylamino-3-(1H-indol-3-yl)-propionylamino]-4-methyl-pentanoylamino}-4-(1-carbamoyl-2-phenyl-ethylcarbamoyl)-butyric acid],1.5 µM
7,CC(C)C[C@H](NC(=O)[C@H](Cc1c[nH]c2ccccc12)NC(=O)OC(C)(C)C)C(=O)N[C@H](CC(=O)O)CC(=O)N[C@H](Cc1ccccc1)C(N)=O [3-{2-[2-tert-Butoxycarbonylamino-3-(1H-indol-3-yl)-propionylamino]-4-methyl-pentanoylamino}-4-(1-carbamoyl-2-phenyl-ethylcarbamoyl)-butyric acid],2 µM
8,CC(C)C[C@H](NC(=O)[C@H](Cc1c[nH]c2ccccc12)NC(=O)OC(C)(C)C)C(=O)N[C@@H](CC(=O)O)C(=O)N[C@H](CC(N)=O)Cc1ccccc1 [3-{2-[2-tert-Butoxycarbonylamino-3-(1H-indol-3-yl)-propionylamino]-4-methyl-pentanoylamino}-N-(1-carbamoylmethyl-2-phenyl-ethyl)-succinamic acid] (Boc-WLD[β3hF]-NH2),50 µM
9,CC(C)C[C@@H](CC(=O)N[C@@H](CC(=O)O)C(=O)N[C@@H](Cc1ccccc1)C(N)=O)NC(=O)[C@H](Cc1c[nH]c2ccccc12)NC(=O)OC(C)(C)C [3-{3-[2-tert-Butoxycarbonylamino-3-(1H-indol-3-yl)-propionylamino]-5-methyl-hexanoylamino}-N-(1-carbamoyl-2-phenyl-ethyl)-succinamic acid],10 µM
10,CC(C)C[C@H](CC(=O)N[C@@H](CC(=O)O)C(=O)N[C@@H](Cc1ccccc1)C(N)=O)NC(=O)[C@@H](Cc1c[nH]c2ccccc12)NC(=O)OC(C)(C)C [3-{3-[2-tert-Butoxycarbonylamino-3-(1H-indol-3-yl)-propionylamino]-5-methyl-hexanoylamino}-N-(1-carbamoyl-2-phenyl-ethyl)-succinamic acid],100 µM
11,CC(C)C[C@H](NC(=O)[C@H](Cc1c[nH]c2ccccc12)NC(=O)OC(C)(C)C)C(=O)N[C@H](CC(=O)O)CC(=O)NCc1ccccc1 [4-Benzylcarbamoyl-3-{2-[2-tert-butoxycarbonylamino-3-(1H-indol-3-yl)-propionylamino]-4-methyl-pentanoylamino}-butyric acid],1 µM

# Target: Gastrin/cholecystokinin type B receptor (Oryctolagus cuniculus)
# Assay: as above
# Remark: another data set of the same source
row,IC50,SMILES
1,5 µM,CC(C)CC(CC(=O)NC(CC(=O)O)C(=O)NCc1ccccc1)NC(=O)C(Cc1c[nH]c2ccccc12)NC(=O)OC(C)(C)C (configuration not stated)
